Results as given in patent EP4038059B1, “SUBSTITUTED CARBAZOLE COMPOUNDS” (Bristol-Myers Squibb Company, priority 2019, dated 2021).

Tests used:
Format in all cases: cell-based
human TLR7 = target: T1, human TLR7 (Homo sapiens, UniProt Q9NYK1); experiment: TLR7 inhibition reporter assay (HEK-Blue SEAP); conditions: HEK-Blue cells overexpressing human TLR7, stimulated with gardiquimod 7.5 µM, 22 h incubation
T1 construct: host or cells: HEK-Blue cells
T1 sequence (Q9NYK1 27-1049): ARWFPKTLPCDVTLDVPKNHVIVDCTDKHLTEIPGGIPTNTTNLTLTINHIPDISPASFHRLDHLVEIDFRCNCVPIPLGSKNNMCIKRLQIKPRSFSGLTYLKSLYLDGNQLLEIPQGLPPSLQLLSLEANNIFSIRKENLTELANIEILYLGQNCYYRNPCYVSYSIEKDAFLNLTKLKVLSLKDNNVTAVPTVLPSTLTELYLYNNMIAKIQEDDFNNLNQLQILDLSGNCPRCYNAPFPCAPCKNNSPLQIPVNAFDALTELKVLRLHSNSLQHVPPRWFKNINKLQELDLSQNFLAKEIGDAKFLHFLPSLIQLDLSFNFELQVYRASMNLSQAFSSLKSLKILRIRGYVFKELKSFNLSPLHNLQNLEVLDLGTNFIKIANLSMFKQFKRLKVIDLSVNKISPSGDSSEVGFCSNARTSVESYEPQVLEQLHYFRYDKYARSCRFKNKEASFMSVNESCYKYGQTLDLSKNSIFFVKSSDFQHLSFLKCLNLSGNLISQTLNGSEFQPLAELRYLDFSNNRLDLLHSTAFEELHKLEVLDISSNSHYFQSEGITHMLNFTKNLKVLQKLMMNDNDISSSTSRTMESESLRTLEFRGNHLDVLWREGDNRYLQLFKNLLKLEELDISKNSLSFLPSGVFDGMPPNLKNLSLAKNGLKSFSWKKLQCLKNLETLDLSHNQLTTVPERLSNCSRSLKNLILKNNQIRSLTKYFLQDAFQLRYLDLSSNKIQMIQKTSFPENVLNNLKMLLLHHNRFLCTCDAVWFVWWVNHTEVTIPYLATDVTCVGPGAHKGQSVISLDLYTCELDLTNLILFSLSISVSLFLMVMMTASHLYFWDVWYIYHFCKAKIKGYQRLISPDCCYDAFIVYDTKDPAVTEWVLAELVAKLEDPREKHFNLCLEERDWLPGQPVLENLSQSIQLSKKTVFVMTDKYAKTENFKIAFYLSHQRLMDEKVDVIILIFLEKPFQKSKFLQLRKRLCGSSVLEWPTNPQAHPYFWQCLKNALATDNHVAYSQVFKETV
Description: (§1) HEK-Blue™-cells (Invivogen) overexpressing human TLR7, TLR8 or TLR9 receptors were used for screening inhibitors of these receptors using an inducible SEAP (secreted embryonic alkaline phosphatase) reporter gene under the control of the IFN-β minimal promoter fused to five NF-κB and AP-1-binding sites. Briefly, cells are seeded into Greiner 384 well plates (15000 cells per well for TLR7, 20,000 for TLR8 and 25,000 for TLR9) and then treated with test compounds in DMSO to yield a final dose response concentration range of 0.05 nM - 50 µM. After a 30 minute compound pre-treatment at room temperature, the cells are then stimulated with a TLR7 ligand (gardiquimod at a final concentration of 7.5 µM), TLR8 ligand (R848 at a final concentration of 15.9 µM) or TLR9 ligand (ODN2006 at a final concentration of 5 nM) to activate NF-κB and AP-1 which induce the production of SEAP. After a 22 h incubation at 37°C, 5% CO2, SEAP levels are determined with the addition of HEK-Blue™ Detection reagent (Invivogen), a cell culture medium that allows for detection of SEAP, according to manufacturer's specifications. The percent inhibition is determined as the % reduction in the HEK-Blue signal present in wells treated with agonist plus DMSO alone compared to wells treated with a known inhibitor.

human TLR9 = target: T2, human TLR9 (Homo sapiens, UniProt Q9NR96); experiment: TLR9 inhibition reporter assay (HEK-Blue SEAP); conditions: HEK-Blue cells overexpressing human TLR9, stimulated with ODN2006 5 nM, 22 h incubation
T2 construct: host or cells: HEK-Blue cells
T2 sequence (Q9NR96 26-1032): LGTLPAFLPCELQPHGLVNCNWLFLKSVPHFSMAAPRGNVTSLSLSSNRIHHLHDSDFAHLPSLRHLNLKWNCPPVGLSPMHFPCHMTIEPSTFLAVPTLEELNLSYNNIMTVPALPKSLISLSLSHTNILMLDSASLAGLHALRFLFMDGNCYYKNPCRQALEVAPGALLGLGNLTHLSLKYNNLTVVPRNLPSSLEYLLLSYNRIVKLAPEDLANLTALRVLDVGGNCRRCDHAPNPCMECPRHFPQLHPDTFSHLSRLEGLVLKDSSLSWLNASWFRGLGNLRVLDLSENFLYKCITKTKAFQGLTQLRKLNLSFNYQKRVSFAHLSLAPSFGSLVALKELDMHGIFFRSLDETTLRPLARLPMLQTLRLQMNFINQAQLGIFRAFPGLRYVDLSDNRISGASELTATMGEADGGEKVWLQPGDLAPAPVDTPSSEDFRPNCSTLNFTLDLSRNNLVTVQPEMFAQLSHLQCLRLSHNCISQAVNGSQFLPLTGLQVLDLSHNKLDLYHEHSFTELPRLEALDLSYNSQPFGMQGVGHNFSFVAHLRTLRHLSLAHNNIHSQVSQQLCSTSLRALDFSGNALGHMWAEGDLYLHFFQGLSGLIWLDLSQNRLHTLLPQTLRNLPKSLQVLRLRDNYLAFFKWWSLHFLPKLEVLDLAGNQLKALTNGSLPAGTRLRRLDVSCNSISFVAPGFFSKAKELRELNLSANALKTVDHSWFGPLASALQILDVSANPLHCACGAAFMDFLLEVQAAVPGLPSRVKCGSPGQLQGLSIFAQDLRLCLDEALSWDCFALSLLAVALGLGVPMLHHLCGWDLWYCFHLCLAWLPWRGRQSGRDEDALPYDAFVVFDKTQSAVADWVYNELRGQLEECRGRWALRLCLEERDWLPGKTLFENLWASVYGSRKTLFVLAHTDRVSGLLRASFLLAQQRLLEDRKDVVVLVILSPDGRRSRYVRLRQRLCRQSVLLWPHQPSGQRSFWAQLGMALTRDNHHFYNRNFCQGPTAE
Description: as §1

human TLR8 = target: T3, human TLR8 (Homo sapiens, UniProt Q9NR97); experiment: TLR8 inhibition reporter assay (HEK-Blue SEAP); conditions: HEK-Blue cells overexpressing human TLR8, stimulated with R848 15.9 µM, 22 h incubation
T3 construct: host or cells: HEK-Blue cells
T3 sequence (Q9NR97 27-1041): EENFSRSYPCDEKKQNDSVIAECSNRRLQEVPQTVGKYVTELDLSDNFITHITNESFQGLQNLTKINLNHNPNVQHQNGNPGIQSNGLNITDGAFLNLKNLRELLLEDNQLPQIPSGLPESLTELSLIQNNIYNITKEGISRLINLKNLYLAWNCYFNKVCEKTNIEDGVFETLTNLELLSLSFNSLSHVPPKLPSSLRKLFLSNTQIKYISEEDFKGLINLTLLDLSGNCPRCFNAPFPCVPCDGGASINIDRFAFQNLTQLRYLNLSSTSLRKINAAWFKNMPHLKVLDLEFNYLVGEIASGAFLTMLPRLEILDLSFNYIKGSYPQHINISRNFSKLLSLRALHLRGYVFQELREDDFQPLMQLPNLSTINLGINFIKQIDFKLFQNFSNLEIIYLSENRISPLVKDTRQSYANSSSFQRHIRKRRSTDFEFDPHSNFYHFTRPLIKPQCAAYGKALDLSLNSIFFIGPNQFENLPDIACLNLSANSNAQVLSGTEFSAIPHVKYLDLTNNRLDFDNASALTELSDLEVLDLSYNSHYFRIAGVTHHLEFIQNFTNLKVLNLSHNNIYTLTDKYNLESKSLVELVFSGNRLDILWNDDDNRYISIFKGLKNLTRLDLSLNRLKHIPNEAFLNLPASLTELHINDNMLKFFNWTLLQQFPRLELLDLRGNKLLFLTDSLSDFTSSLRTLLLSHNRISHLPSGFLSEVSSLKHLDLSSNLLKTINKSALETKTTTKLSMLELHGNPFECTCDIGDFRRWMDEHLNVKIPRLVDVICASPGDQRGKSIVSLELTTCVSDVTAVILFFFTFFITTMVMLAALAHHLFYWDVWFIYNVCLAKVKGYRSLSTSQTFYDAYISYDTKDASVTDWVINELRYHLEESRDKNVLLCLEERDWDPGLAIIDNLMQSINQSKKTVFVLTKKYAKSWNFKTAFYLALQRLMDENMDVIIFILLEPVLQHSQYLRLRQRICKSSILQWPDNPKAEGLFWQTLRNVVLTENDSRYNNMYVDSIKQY
Description: as §1

| IC50 (human TLR7) | IC50 (human TLR9) | IC50 (human TLR8) | SMILES |
| --- | --- | --- | --- |
| > 3130 nM | 1050 nM | > 3130 nM | CN1CCC(c2ccc3c(c2)[nH]c2ccc(C4CCNCC4)cc23)CC1=O (stereo not drawn) [Example 6, 1-methyl-4-(6-(piperidin-4-yl)-9H-carbazol-2-yl)piperidin-2-one] |
| 2.2 nM | 350 nM | 2.4 nM | Cc1c(-c2cc(C)c3c(c2)[nH]c2ccc(C4CCNCC4)cc23)cn(C)c(=O)c1C [Example 10, 1,3,4-trimethyl-5-(4-methyl-6-(piperidin-4-yl)-9H-carbazol-2-yl)pyridin-2(1H)-one] |
| 1.3 nM | 271 nM | 1.6 nM | COc1cc(-c2cc3[nH]c4ccc(C5CCCNC5)cc4c3c(C)c2C)cn2ncnc12 (stereo not drawn) [Example 26, 2-(8-methoxy-[1,2,4]triazolo[1,5-a]pyridin-6-yl)-3,4-dimethyl-6-(piperidin-3-yl)-9H-carbazole] |
